Among the data in patent publication US20250115583A1, “BICYCLIC INDAZOLE GLUCOCORTICOID RECEPTOR ANTAGONISTS” (Corcept Therapeutics Incorporated, priority 2021, published 2025) are Ki values, retold here.

A word on the Ki: it is the dissociation constant of the complex between target and ligand, obtained from inhibition or displacement. High values mean a looser hold on the target, low ones a stronger hold on the target.

The test deals with glucocorticoid receptor (Homo sapiens (Human), UniProt P04150). The test is described as follows: HepG2 TAT assay: inhibition of dexamethasone-induced tyrosine aminotransferase (TAT) activity. The following applies: HepG2 cells, challenge of 100 nM dexamethasone, 18-24 hr; IC50 converted to Ki by Cheng and Prusoff equation. Format: cell-based. Here is the method: Glucocorticoid mediated activation of TAT occurs by transactivation of glucocorticoid response elements in the TAT promoter by glucocorticoid receptor-agonist complex.
Chain of glucocorticoid receptor (P04150 whole entry): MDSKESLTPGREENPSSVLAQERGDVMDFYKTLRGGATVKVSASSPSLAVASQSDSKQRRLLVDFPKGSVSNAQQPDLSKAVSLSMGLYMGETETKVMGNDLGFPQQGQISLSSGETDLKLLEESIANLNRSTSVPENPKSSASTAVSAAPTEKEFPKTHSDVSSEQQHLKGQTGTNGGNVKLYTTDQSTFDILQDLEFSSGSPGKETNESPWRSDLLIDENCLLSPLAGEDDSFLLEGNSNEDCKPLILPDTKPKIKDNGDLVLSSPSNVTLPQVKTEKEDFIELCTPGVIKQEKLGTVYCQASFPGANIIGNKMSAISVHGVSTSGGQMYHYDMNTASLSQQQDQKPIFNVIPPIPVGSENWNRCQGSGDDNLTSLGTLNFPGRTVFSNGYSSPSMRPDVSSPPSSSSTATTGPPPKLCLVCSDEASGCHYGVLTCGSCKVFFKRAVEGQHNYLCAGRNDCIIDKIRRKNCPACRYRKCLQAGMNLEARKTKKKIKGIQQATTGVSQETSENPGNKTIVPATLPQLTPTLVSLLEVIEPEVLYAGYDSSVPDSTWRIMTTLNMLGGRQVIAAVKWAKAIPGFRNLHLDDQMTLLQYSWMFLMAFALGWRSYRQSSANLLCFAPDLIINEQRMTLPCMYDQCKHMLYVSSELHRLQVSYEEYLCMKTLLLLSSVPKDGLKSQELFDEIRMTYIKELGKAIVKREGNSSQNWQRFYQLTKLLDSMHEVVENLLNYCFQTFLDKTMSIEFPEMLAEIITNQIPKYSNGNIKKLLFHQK
HepG2 cells were cultured using MEME media supplemented with 10% (v/v) foetal bovine serum; 2 mM L-glutamine and 1% (v/v) NEAA at 37° C., 5%/95% (v/v) CO2/air.
Compounds were serially half log diluted in 100% (v/v) dimethylsulphoxide from a 10 mM stock.
HepG2 cells were then lysed with 30 μl of cell lysis buffer containing a protease inhibitor cocktail for 15 minutes at 4° C. […] After 2 hours incubation at 37° C. the reaction was terminated by the addition of 15 μl of 10M aqueous potassium hydroxide solution, and the plates incubated for a further 30 minutes at 37° C.
[compound] and fitting the data to a 4 parameter logistic equation.
Turning to `Cc1cc2c(cnn2-c2ccc(F)cc2)cc1[C@@]12CN(S(=O)(=O)c3cnn(C)n3)C[C@@H]1[C@H]2COc1ccccc1` (stereo in doubt) [Example 49, 1-(4-fluorophenyl)-6-methyl-5-(3-((2-methyl-2H-1,2,3-triazol-4-yl)sulfonyl)-6-(phenoxymethyl)-3-azabicyclo[3.1.0]hexan-1-yl)-1H-indazole], the affinity, expressed as Ki, was 0.12 µM. The compound `Cc1cc2c(cnn2-c2ccc(F)cc2)cc1C12CC(Oc3ccccc3)CC1CN(C(=O)c1ccccc1)C2` (stereo not shown) [Example 39] displayed a Ki of 0.19 µM. With `Cc1cc2c(cnn2-c2ccc(F)cc2)cc1[C@@]12CN(C(=O)OC3CCOCC3)C[C@@H]1[C@H]2c1ccccc1` (single isomer, unassigned) [Example 125, tetrahydro-2H-pyran-4-yl 1-(1-(4-fluorophenyl)-6-methyl-1H-indazol-5-yl)-6-phenyl-3-azabicyclo[3.1.0]hexane-3-carboxylate] the figure was 0.029 µM.

On to `Cc1cc2c(cnn2-c2ccc(F)cc2)cc1C12CC(Oc3ccccc3)CC1CN(S(=O)(=O)c1cnn(C)c1)C2` (stereo not shown) [Example 44], for which the Ki stood at 0.37 µM.

`Cc1cc2c(cnn2-c2ccc(F)cc2)cc1[C@@]12CN(S(=O)(=O)c3cnn(C)n3)C[C@@H]1[C@H]2C(=O)N1CCCC1` (stereo in doubt) [Example 55, (1-(1-(4-fluorophenyl)-6-methyl-1H-indazol-5-yl)-3-((2-methyl-2H-1,2,3-triazol-4-yl)sulfonyl)-3-azabicyclo[3.1.0]hexan-6-yl)(pyrrolidin-1-yl)methanone] had a Ki of 0.3 µM.

Take `Cc1cc2c(cnn2-c2ccc(F)cc2)cc1[C@@]12CN(C(=O)c3ccccc3C#N)C[C@@H]1[C@H]2c1ccccc1` (single isomer, unassigned) [Example 130, 2-(1-(1-(4-fluorophenyl)-6-methyl-1H-indazol-5-yl)-6-phenyl-3-azabicyclo[3.1.0]hexane-3-carbonyl)benzonitrile]: the Ki was found to be 0.0057 µM.

The compound `Cc1cc2c(cnn2-c2ccc(F)cc2)cc1[C@@]12CN(C(=O)c3ccnn3C)C[C@@H]1[C@H]2c1ccccc1` (stereo in doubt) [Example 161, (1-(1-(4-fluorophenyl)-6-methyl-1H-indazol-5-yl)-6-phenyl-3-azabicyclo[3.1.0]hexan-3-yl)(1-methyl-1H-pyrazol-5-yl)methanone] returned a Ki of 0.061 µM.

Turning to `Cc1cc2c(cnn2-c2ccc(F)cc2)cc1C12CN(S(C)(=O)=O)CC1CC(O)(c1ccccc1)C2` (stereo not shown) [Example 9], the affinity, expressed as Ki, was 0.13 µM.

Take `CO[C@@]1(c2ccccc2)C[C@H]2CN(S(=O)(=O)C3CC3)C[C@@]2(c2cc3cnn(-c4ccc(F)cc4)c3cc2C)C1` [Example 24]: the Ki amounted to 0.032 µM. On to `Cc1cc2c(cnn2-c2ccc(F)cc2)cc1[C@@]12CN(C(=O)c3cc(C#N)ccn3)C[C@@H]1[C@H]2c1ccccc1` (single isomer, unassigned) [Example 149, 2-(1-(1-(4-fluorophenyl)-6-methyl-1H-indazol-5-yl)-6-phenyl-3-azabicyclo[3.1.0]hexane-3-carbonyl)isonicotinonitrile], for which the affinity corresponds to a Ki of 0.013 µM. With `Cc1cc2c(cnn2-c2ccc(F)cc2)cc1[C@@]12CN(C(=O)c3cccc(C#N)n3)C[C@@H]1[C@H]2c1ccccc1` (stereo in doubt) [Example 164, 6-(1-(1-(4-fluorophenyl)-6-methyl-1H-indazol-5-yl)-6-phenyl-3-azabicyclo[3.1.0]hexane-3-carbonyl)picolinonitrile] the figure was 0.0072 µM. `Cc1cc2c(cnn2-c2ccc(F)cc2)cc1[C@@]12CN(C(=O)c3cccc(F)c3)C[C@@H]1[C@H]2c1ccccc1` (stereo in doubt) [Example 117, (3-fluorophenyl)(1-(1-(4-fluorophenyl)-6-methyl-1H-indazol-5-yl)-6-phenyl-3-azabicyclo[3.1.0]hexan-3-yl)methanone] came in with a Ki of 0.034 µM. With `Cc1cc2c(cnn2-c2ccc(F)cc2)cc1[C@@]12CN(C(=O)c3ccc(C#N)cc3)C[C@@H]1[C@H]2c1ccccc1` (stereo in doubt) [Example 115, 4-(1-(1-(4-fluorophenyl)-6-methyl-1H-indazol-5-yl)-6-phenyl-3-azabicyclo[3.1.0]hexane-3-carbonyl)benzonitrile] the figure was 0.036 µM; with `CCCn1cc(S(=O)(=O)N2C[C@@H]3C[C@](OC)(c4ccccc4)C[C@]3(c3cc4cnn(-c5ccc(F)cc5)c4cc3C)C2)cn1` [Example 22], 0.032 µM; with `COc1cccc(C(=O)N2C[C@@H]3[C@@H](c4ccccc4)[C@]3(c3cc4cnn(-c5ccc(F)cc5)c4cc3C)C2)c1` (single isomer, unassigned) [Example 141, (1-(1-(4-fluorophenyl)-6-methyl-1H-indazol-5-yl)-6-phenyl-3-azabicyclo[3.1.0]hexan-3-yl)(3-methoxyphenyl)methanone], 0.019 µM. With `Cc1cc2c(cnn2-c2ccc(F)cc2)cc1[C@@]12CN(S(=O)(=O)c3ccccc3)C[C@@H]1[C@H]2c1ccccc1` [Example 89] the figure was 0.017 µM.

In the case of `Cc1cc2c(cnn2-c2ccc(F)cc2)cc1C12CC(c3ccccc3)CC1CN(S(C)(=O)=O)C2` (stereo not shown) [Example 46, 1-(4-fluorophenyl)-6-methyl-5-(2-(methylsulfonyl)-5-phenylhexahydrocyclopenta[c]pyrrol-3a(1H)-yl)-1H-indazole], the affinity corresponds to a Ki of 0.087 µM.

The compound `Cc1cc2c(cnn2-c2ccc(F)cc2)cc1[C@@]12CN(C(=O)C3CCC3)C[C@@H]1[C@H]2c1ccccc1` (stereo in doubt) [Example 120, cyclobutyl(1-(1-(4-fluorophenyl)-6-methyl-1H-indazol-5-yl)-6-phenyl-3-azabicyclo[3.1.0]hexan-3-yl)methanone] yielded a Ki of 0.052 µM. With `CC(=O)N1C[C@H]2[C@H](C(=O)Nc3ccc(F)cn3)[C@@]2(c2cc3cnn(-c4ccc(F)cc4)c3cc2C)C1` (stereo in doubt) [Example 68, 3-acetyl-1-(1-(4-fluorophenyl)-6-methyl-1H-indazol-5-yl)-N-(5-fluoropyridin-2-yl)-3-azabicyclo[3.1.0]hexane-6-carboxamide] the figure was 0.09 µM; with `Cc1cc2c(cnn2-c2ccc(F)cc2)cc1[C@@]12CN(C(=O)c3ccncc3)C[C@@H]1[C@H]2c1ccccc1` (single isomer, unassigned) [Example 165, (1-(1-(4-fluorophenyl)-6-methyl-1H-indazol-5-yl)-6-phenyl-3-azabicyclo[3.1.0]hexan-3-yl)(pyridin-4-yl)methanone], 0.084 µM; with `COCCOC(=O)N1C[C@@H]2[C@@H](c3ccccc3)[C@]2(c2cc3cnn(-c4ccc(F)cc4)c3cc2C)C1` (single isomer, unassigned) [Example 123, 2-methoxyethyl 1-(1-(4-fluorophenyl)-6-methyl-1H-indazol-5-yl)-6-phenyl-3-azabicyclo[3.1.0]hexane-3-carboxylate], 0.027 µM. With `CO[C@]1(c2ccccc2)C[C@@H]2CN(S(=O)(=O)c3cncc(F)c3)C[C@]2(c2cc3cnn(-c4ccc(F)cc4)c3cc2C)C1` [Example 25] the figure was 0.052 µM; with `Cc1cc2c(cnn2-c2ccc(F)cc2)cc1[C@@]12CN(C(=O)c3cnn(C)c3)C[C@@H]1[C@H]2c1ccccc1` (single isomer, unassigned) [Example 129, (1-(1-(4-fluorophenyl)-6-methyl-1H-indazol-5-yl)-6-phenyl-3-azabicyclo[3.1.0]hexan-3-yl)(1-methyl-1H-pyrazol-4-yl)methanone], 0.037 µM; with `Cc1cc2c(cnn2-c2ccc(F)cc2)cc1[C@@]12CN(C(=O)c3cnn(C)n3)C[C@@H]1[C@H]2c1ccccc1` (single isomer, unassigned) [Example 127, (1-(1-(4-fluorophenyl)-6-methyl-1H-indazol-5-yl)-6-phenyl-3-azabicyclo[3.1.0]hexan-3-yl)(2-methyl-2H-1,2,3-triazol-4-yl)methanone], 0.019 µM.

Compound `Cc1cc2c(cnn2-c2ccc(F)cc2)cc1[C@@]12CN(C(=O)c3ccccc3)C[C@@H]1[C@H]2c1cccnc1` (stereo in doubt) [Example 173, (1-(1-(4-fluorophenyl)-6-methyl-1H-indazol-5-yl)-6-(pyridin-3-yl)-3-azabicyclo[3.1.0]hexan-3-yl)(phenyl)methanone] yielded a Ki of 0.13 µM. `COC1(c2ccccc2)CC2CN(S(=O)(=O)c3cnn(C)c3)CC2(c2cc3cnn(-c4ccc(F)cc4)c3cc2C)C1` (stereo not shown) [Example 11, 1-(4-Fluorophenyl)-5-(5-methoxy-2-((1-methyl-1H-pyrazol-4-yl)sulfonyl)-5-phenylhexahydrocyclopenta[c]pyrrol-3a(1H)-yl)-6-methyl-1H-indazole] yielded a Ki of 0.033 µM. With `CCOC(=O)N1C[C@@H]2[C@@H](c3ccccc3)[C@]2(c2cc3cnn(-c4ccc(F)cc4)c3cc2C)C1` (single isomer, unassigned) [Example 122, ethyl 1-(1-(4-fluorophenyl)-6-methyl-1H-indazol-5-yl)-6-phenyl-3-azabicyclo[3.1.0]hexane-3-carboxylate] the figure was 0.022 µM.

In the case of `COC1(c2nccs2)CC2CN(S(=O)(=O)c3cnn(C)c3)CC2(c2cc3cnn(-c4ccc(F)cc4)c3cc2C)C1` (stereo not shown) [Example 3, 2-(3a-(1-(4-fluorophenyl)-6-methyl-1H-indazol-5-yl)-5-methoxy-2-((1-methyl-1H-pyrazol-4-yl)sulfonyl)octahydrocyclopenta[c]pyrrol-5-yl)thiazole], the affinity corresponds to a Ki of 0.29 µM.
